Reference: EP1161524B1, “CELLS COEXPRESSING AN AMYLOID PRECURSOR PROTEIN AND AN $g(a)-SECRETASE AND THEIR USES IN TEST METHODS AND DIAGNOSTICS” (Fahrenholz, Falk, priority 1999, dated 2000)

Assays:
gereinigtes ADAM 10 = target: T1, gereinigtes ADAM 10 (Bos taurus, UniProt Q10741); test: Inhibition of the proteolytic cleavage of Aβ(11-28) by purified ADAM 10 (metalloproteinase inhibitors); type: biochemical, Rind (Bos taurus); settings: inhibitor concentration 1 mM
T1 construct: daß die proteolytisch aktivierte Form der Disintegrin-Metalloprotease ADAM 10 im wesentlichen in der Plasmamembranen lokalisiert ist; from tissue; host or cells: bovine kidney plasma membranes
T1 sequence (Q10741 214-748): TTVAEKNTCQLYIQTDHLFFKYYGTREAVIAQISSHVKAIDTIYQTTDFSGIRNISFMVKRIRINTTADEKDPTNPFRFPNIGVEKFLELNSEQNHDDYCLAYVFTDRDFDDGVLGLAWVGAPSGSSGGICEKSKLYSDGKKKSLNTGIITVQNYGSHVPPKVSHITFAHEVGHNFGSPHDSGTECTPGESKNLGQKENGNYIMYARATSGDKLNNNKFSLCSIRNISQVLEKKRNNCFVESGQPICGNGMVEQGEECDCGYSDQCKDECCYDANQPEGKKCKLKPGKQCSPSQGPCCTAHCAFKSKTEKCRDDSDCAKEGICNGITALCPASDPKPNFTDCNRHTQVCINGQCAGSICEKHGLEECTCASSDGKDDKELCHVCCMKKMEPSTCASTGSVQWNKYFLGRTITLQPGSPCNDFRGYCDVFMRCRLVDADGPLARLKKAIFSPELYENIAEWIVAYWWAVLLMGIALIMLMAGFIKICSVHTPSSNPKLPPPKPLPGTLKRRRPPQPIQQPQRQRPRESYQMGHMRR
Description: Peptide einer Endkonzentration von 0,3 mM wurden mit 2 µg gereinigten Enzym in 50 µl 50 mM EPPS pH 8,3, 250 mM NaCl bei 37°C 30 Minuten oder 6 Stunden inkubiert. Die Reaktionen wurden mit 2 µl TFA gestoppt. Meßproben wurden mit Hilfe von HPLC auf einer Vydac (The Separation Group, Hesperia, Calif. USA) RP 18 Säule (5 µm, 250 x 4,6 mm) analysiert. Die Peptide wurden mit einem Puffersystem von 0,1 % TFA in Wasser (Puffer A) und 0,1 % TFA, 9,9 % Wasser, 90 % Acetonitril (Puffer B) aufgetrennt, wobei der folgende Gradient angelegt wurde: 0 % B, 5 Min.; 0 bis 70 % B innerhalb 45 Min. Das Molekulargewicht der Proteolyseprodukte wurde mit ESI-Massenspektrometrie bestimmt. Für die Berechnung der prozentualen Spaltung wurde die Peakfläche, die ein Peptid ergab, das ohne Enzym inkubiert und ansonsten identisch behandelt wurde, als Referenz für 100 % herangezogen.
Einige Metalloproteinase-Inhibitoren wurden auf ihre Fähigkeit, die proteolytische Spaltung von Aβ(11-28) durch gereinigtes ADAM 10 zu inhibieren, getestet.

HEK-Zellen = test: Immunoblot analysis of APPsα secretion into the medium (antibody 6E10), untransfected HEK cells; type: cell-based; settings: Homo sapiens, HEK293, 1 µm PMA, 4 h, Fig. 5 lanes 1 and 2, read-out: Erhöhung der APPsα-Freisetzung
Source text: (§1) Fig. 5 zeigt die Sekretion von APPsα von HEK- und HEK-ADAM-10-Zellen. • (A) Die Zellen wurden in Gegenwart der bezeichneten Verbindung inkubiert. Nach 4 Stunden wurde das Medium gesammelt, die Proteine präzipitiert und einer Immunoblotanalyse mit dem monoklonalen Antikörper 6E10, gefolgt von einem sekundären [^35S]-markierten Anti-Maus-IgG-Antikörper, unterzogen. • (B) Quantitative Analyse des sekretierten APPsα. Die APPsα entsprechenden radioaktiven Banden wurden mit Hilfe eines Bio-Imaging Analyzer BAS-1800 quantifiziert. Die Meßwerte wurden wie in dem Beispiel beschrieben, auf verschiedene Proteinmengen normiert. […]
(§2) 8.10^5 HEK und HEK-ADAM10-Zellen (HEK-Zellen, die ADAM 10 stabil exprimieren, Verfahren wie oben) wurden auf 5 cm Zellkulturschalen, die mit Poly-L-Lysin behandelt worden waren, ausgesät und fast bis zu Konfluenz hochgezogen. […] Die radioaktiven Banden, die APPsα entsprachen, wurden mit Hilfe des Bio-Imaging-Analysers-BAS-1800 (Fuji) quantifiziert. […]
(§3) Die α-Sekretaseaktivität in HEK-ADAM 10 Zellen wurde mit der Aktivität, die in untransfizierten HEK-Zellen gefunden wurde, verglichen. […] Immunoblotexperimente und Immunopräzipitation nach metabolischer [^35S]-Markierung wurden durchgeführt, um die α-Sekretaseaktivität zu quantifizieren (Fig. 5 und Fig. 6). […]

HEK-ADAM 10-Zellen = test: Immunoblot analysis of APPsα secretion into the medium (antibody 6E10), HEK cells stably expressing ADAM 10; type: cell-based; settings: Homo sapiens, HEK293; HEK-ADAM 10 cells, 1 µm PMA, 4 h, Fig. 5 lanes 4 and 5; read-out: Vergrößerung der α-Sekretaseaktivität (APPsα-Freisetzung)
Source text: as §1, §2, §3

Row | SMILES | Inhibierung der proteolytischen Spaltung von Aβ(11-28) durch gereinigtes ADAM 10 (gereinigtes ADAM 10) | fold induction at 1 µM (HEK-Zellen) | fold induction at 1 µM (HEK-ADAM 10-Zellen)
1 | c1cnc2c(c1)ccc1cccnc12 [1,10-Phenanthrolin] | inhibierte |  | 
2 | OC(CS)C(O)CS (stereo not shown) [DTT] | vollständig inhibiert |  | 
3 | CCCCCCCCCCCCCC(=O)O[C@@H]1[C@@H](C)[C@@]2(O)[C@@H](C=C(CO)C[C@]3(O)C(=O)C(C)=C[C@@H]23)[C@@H]2C(C)(C)[C@]12OC(C)=O [PMA, Phorbol-12-myristat-13-acetat] |  | ~6 | 2.5
